Experiment: Drug release test of solid fluorescein sodium-enclosed PMMA hollow device filled with SF6 gas after transplantation into rabbit
Type: in vivo
Conditions: fluorescence intensity meter, after initial burst, from the first week
Method: In order to prepare a hollow device made of a polymethyl methacrylate (PMMA) resin as an acrylic resin having low oxygen permeability, outer edge portions of optical parts of two PMMA intraocular lenses were bonded with an adhesive, as a trial model. The cavity volume was calculated to be 11.3 μL. One opening part was made without using an adhesive (arrow) (FIG. 3(A), and FIG. 4). In order to examine the drug release property, a 10% aqueous solution of sodium fluorescein as a low-molecular-weight water-soluble fluorescent dye was filled in the cavity of the PMMA hollow device and air-dried (FIG. 3(B)). The solid fluorescein sodium-enclosed PMMA hollow device was placed in 100% SF6 gas, and its hollow portion was filled with the gas (FIG. 3(B)). After a rabbit was anesthetized by intramuscular injection of Ketalar and Selactar, the pupil of the right eye was dilated with a […] hydrochloride ophthalmic solution (Mydrin-P (registered trademark), Santen Pharmaceutical Co., Ltd.). […] The residual amount of gas was measured from the photograph of the anterior ocular segment and the content of fluorescein sodium in the anterior chamber water sample was measured with a fluorescence intensity meter. […]

drug release profile (fluorescein sodium content in anterior chamber water): stable sustained release
SMILES: O=C1OC2(c3ccc(O)cc3Oc3cc(O)ccc32)c2ccccc21 [fluorescein sodium, sodium fluorescein]

— patent US11219598B2, “Ophthalmic drug sustained release device” (PUBLIC UNIVERSITY CORPORATION NAGOYA CITY UNIVERSITY, priority 2016, dated 2022)
